Results: patent publication US8841087B2 (priority 2008, dated 2014)

System: clinical strains of Mycobacterium tuberculosis
Experiment: Reference phenotypic test of antibiotic sensitivity in solid medium
Type: cell-based
Conditions: Mycobacterium tuberculosis, read-out: minimum inhibitory concentration

SMILES: CO[C@H]1/C=C/O[C@@]2(C)Oc3c(C)c(O)c4c(O)c(c(/C=N/N5CCN(C)CC5)c(O)c4c3C2=O)NC(=O)/C(C)=C\C=C\[C@H](C)[C@H](O)[C@@H](C)[C@@H](O)[C@@H](C)[C@H](OC(C)=O)[C@@H]1C [rifampicin]
- MIC: > 1 µg/mL
